Reference: patent US5145990A, “Phosphorous containing dhp enzyme inhibitors” (Merck & Co., Inc., priority 1991, dated 1992)

Biological target: T1, renal dehydropeptidase I (renal dipeptidase, E.C. 3.4.13.11) (Sus scrofa, UniProt P22412)
T1 construct: solubilized preparation of […] isolated from hog kidneys; from tissue; host or cells: hog kidney
T1 sequence (P22412 17-409): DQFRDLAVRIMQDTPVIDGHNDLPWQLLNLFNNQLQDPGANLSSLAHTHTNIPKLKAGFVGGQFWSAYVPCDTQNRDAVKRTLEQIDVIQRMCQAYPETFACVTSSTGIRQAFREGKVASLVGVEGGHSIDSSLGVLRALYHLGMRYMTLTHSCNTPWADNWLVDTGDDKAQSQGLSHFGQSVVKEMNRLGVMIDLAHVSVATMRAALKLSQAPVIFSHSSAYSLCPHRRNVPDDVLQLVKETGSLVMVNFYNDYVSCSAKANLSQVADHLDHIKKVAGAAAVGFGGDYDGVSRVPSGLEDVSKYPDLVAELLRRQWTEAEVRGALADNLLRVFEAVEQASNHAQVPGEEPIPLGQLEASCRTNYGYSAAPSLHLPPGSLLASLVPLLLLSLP
Experiment: In vitro screen: inhibition of hydrolysis of glycyldehydrophenylalanine (GDP) by solubilized renal dipeptidase
Format: biochemical
Settings: Table I, structure II; hog kidney enzyme, GDP 0.05 mM, pH 7.1, 37° C., 275 nm
Procedure: Renal dehydropeptidase activity was first described by M. Bergmann and H. Schleich, Z. Physiol. Chem., 205, 65 (1932); see also B. J. Campbell et al., Biochem. Biophys. Acta, 118, 371 (1966) and references therein.
This measured the ability of compounds to inhibit hydrolysis of glycyldehydrophenylalanine (GDP) by a solubilized preparation of […] isolated from hog kidneys. The procedure is as follows: to a 1 ml system containing 50 mM "MOPS" (3-(N-morpholino)-propanesulfonic acid) buffer, pH 7.1 is added 5 mg of lyophilized enzyme, and the test compound at a final concentration of 0.1 mM. After a five minute incubation of 37° C., GDP is added to a final concentration of 0.05 mM. Incubation is continued for 10 minutes, at 37° C. and hydrolysis of GDP is measured by the change in optical density with time at 275 nm. Inhibition of the enzyme is gauged by comparison to a standard run containing no inhibitor and is expressed as the inhibitor binding constant K. This is the concentration of the inhibitor which achieves 50% inhibition of enzyme.

Ki [nM] | SMILES
21 | CC(C)/C=C(/CP(=O)(O)C(N)CC1CCCCC1)C(=O)O (centres unmarked)
2.1 | CC(C)/C=C(\CP(=O)(O)C(N)CC1CCCCC1)C(=O)O (centres unmarked)
